US20240307372A1, “COMPOSITIONS AND METHODS TO IMPROVE BENEFIT OF SUBOPTIMALLY ADMINISTERED THERAPEUCTICS FOR THE TREATMENT OF BENIGN AND NEOPLASTIC DISEASES, INFECTIONS, INFLAMMATORY, METABOLIC AND IMMUNOLOGIAL DISEASES” (priority 2023, published 2024)

System: leukemic cells and leukemic stem cells
Test: BCR-ABL CML mouse model (bone marrow transplantation), oral treatment
Type: in vivo
Settings: mice, orally, 150 mg/kg, 1×/day
Procedure: In an in vivo model, the effectiveness of Tetrandrine was tested on CML stem cells. The objective of the study was to determine the survival of leukemic cells and leukemic stem cells in response to the treatment with Tetrandrine. After priming donor C57BL/6 (B6) mice with intravenous injections of 5-fluorouracil for four days, bone marrow cells were harvested from femurs and tibia, then transfected twice with retrovirus containing MSCV-BCR-ABL-IRES-GFP. Recipient mice were lethally irradiated by two doses of 550 cGy before bone marrow transplantation by intravenous injection with 5×10^5 cells/mouse. Blood from recipient mice was tested for disease induction one week after transduction by FACS analysis for GFP (FIG. 7A). […] Treatments started on day 8 after bone marrow transplantation (FIG. 7B).

“6,6′,7,12-tetramethoxy-2,2′-dimethyl-berbaman [ES-3000]” was tested, and the “inhibiting the development of circulating leukemic cells” value (listed as TET) was “reduced the development of leukemic cells in the peripheral blood”, the “inhibiting the development of leukemic stem cells” value (listed as TET) was “reduced the development of” and the “inhibiting the development of circulating leukemic cells” value (listed as Tetrandrine) was “superior to Imatinib”. The “inhibiting the development of leukemic stem cells” value (listed as Tetrandrine) was “superior to Imatinib”.
